ChEMBL document CHEMBL1201862, “PubChem BioAssay data set” (2004)
Calls of active or inactive are those of the source.

Columns and labels:
[1] = molecular target: T1, Polyadenylate-binding protein 1 (Homo sapiens, UniProt P11940); test: MLLE domain peptide-binding blockers, IC50 – biochemical, fluorescence polarization, FITC-PAM2 peptide, dose response (AID 602259); assay type: functional; conditions: read-out: IC50_Mean
[2] = molecular target: T1, Polyadenylate-binding protein 1; test: MLLE binding blockers, Cy5 peptide tracer – biochemical, fluorescence polarization, Cy5-PAM2 peptide, secondary, miRNA deadenylation inhibitor project, dose response (AID 602260); assay type: functional; conditions: read-out: IC50_Mean
[3] = molecular target: Mitogen-activated protein kinase 10 (Homo sapiens, UniProt P53779); test: Dose response biochemical screening assay for inhibitors of c-Jun N-Terminal Kinase 3 (JNK3). [Related pubchem assays: 746 ]
Mitogen-activated protein kinase 10, sequence (P53779 whole entry): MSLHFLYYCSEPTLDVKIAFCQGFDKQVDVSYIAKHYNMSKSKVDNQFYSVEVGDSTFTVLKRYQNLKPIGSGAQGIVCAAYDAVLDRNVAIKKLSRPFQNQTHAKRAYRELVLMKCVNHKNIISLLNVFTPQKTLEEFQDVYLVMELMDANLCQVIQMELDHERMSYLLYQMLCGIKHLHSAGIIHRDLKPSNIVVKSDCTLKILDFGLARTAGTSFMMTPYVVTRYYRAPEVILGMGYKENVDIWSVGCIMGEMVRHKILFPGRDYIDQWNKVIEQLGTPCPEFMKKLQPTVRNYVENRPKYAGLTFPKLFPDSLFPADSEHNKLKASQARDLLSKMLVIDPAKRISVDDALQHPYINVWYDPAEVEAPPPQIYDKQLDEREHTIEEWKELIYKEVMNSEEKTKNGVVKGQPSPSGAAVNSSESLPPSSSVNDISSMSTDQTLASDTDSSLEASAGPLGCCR

[4] = Luminescence Cell-Based Dose Response HTS to Identify Inhibitors of 5'UTR Stem-Loop Driven Prion Protein mRNA Translation in H4 Neuroglioblastoma Cells. [Related pubchem assays: 1827 (Project Summary), 1813 (Primary HTS)]; assay type: functional
[5] = blockers of bursicon-stimulated LGR2 cAMP reporter – cell-based, HEK293, CRE-luciferase reporter, cherry pick, set 2, dose response (AID 743343); assay type: functional;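 note: transfected cells were stimulated with diluted bursicon conditioned medium after compound addition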
[6] = A549 cell cytotoxicity, dose response, cytotoxicity control, plate reader, cherry-pick, antagonist series (AID 743412); assay type: functional, cell-based
[7] = molecular target: T2, Microphthalmia-associated transcription factor (Homo sapiens, UniProt O75030); test: reducers of TRPM1 reporter luminescence, concentration series – cell-based, SK-MEL-5, cherry-picked, set 3, MITF inhibitor project, dose response (AID 493073); assay type: functional;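 note: SK-MEL-5 melanoma cells with luciferase driven by the MITF target TRPM1 promoter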
T2 sequence (O75030 whole entry): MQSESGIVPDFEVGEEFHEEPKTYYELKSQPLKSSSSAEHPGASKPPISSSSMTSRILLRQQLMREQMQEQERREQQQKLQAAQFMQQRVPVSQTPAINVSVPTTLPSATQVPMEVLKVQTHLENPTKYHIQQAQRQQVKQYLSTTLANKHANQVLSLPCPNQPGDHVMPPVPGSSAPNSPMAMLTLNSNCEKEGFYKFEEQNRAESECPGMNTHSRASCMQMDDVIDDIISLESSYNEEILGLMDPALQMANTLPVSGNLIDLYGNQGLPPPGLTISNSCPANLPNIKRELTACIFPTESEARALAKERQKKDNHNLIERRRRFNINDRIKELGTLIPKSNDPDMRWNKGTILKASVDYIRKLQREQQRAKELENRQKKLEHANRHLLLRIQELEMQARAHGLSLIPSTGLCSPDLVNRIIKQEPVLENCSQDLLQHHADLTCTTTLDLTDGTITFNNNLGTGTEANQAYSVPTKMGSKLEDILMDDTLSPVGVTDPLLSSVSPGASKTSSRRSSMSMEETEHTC

[8] = alpha-synuclein stem-loop luciferase translation blockers – H4 neuroglioma cells, luminescence, confirmation (AID 1988); assay type: functional, cell-based
[9] = blockade of melanocortin 4 receptor signaling – cell-based, plate reader, cherry pick, counter-screen for LGR2 antagonist project, dose response (AID 743444); assay type: functional;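 note: transfected HEK 293 cells stimulated with alpha-MSH peptide; potency of inhibitors of the alpha-MSH evoked signal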
[10] = viability loss in HEK293 cells – cell-based, plate reader, cherry-picked samples, cytotoxicity control, dose response (AID 743446); assay type: functional
[11] = toxicity toward HepG2 liver cells – cell-based, plate reader, cherry-pick, antagonist series, cytotoxicity control, dose response (AID 743416); assay type: functional
[12] = molecular target: T3, Fatty acid synthase (Homo sapiens, UniProt P49327); test: inhibition of human FAS-TE enzyme activity – biochemical, kinetic fluorescence intensity, dose response (AID 624326); assay type: functional;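 note: rate of fluorescence rise from hydrolysis of a fluorogenic O-methyl fluorescein ester substrate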
T3 sequence (P49327 whole entry): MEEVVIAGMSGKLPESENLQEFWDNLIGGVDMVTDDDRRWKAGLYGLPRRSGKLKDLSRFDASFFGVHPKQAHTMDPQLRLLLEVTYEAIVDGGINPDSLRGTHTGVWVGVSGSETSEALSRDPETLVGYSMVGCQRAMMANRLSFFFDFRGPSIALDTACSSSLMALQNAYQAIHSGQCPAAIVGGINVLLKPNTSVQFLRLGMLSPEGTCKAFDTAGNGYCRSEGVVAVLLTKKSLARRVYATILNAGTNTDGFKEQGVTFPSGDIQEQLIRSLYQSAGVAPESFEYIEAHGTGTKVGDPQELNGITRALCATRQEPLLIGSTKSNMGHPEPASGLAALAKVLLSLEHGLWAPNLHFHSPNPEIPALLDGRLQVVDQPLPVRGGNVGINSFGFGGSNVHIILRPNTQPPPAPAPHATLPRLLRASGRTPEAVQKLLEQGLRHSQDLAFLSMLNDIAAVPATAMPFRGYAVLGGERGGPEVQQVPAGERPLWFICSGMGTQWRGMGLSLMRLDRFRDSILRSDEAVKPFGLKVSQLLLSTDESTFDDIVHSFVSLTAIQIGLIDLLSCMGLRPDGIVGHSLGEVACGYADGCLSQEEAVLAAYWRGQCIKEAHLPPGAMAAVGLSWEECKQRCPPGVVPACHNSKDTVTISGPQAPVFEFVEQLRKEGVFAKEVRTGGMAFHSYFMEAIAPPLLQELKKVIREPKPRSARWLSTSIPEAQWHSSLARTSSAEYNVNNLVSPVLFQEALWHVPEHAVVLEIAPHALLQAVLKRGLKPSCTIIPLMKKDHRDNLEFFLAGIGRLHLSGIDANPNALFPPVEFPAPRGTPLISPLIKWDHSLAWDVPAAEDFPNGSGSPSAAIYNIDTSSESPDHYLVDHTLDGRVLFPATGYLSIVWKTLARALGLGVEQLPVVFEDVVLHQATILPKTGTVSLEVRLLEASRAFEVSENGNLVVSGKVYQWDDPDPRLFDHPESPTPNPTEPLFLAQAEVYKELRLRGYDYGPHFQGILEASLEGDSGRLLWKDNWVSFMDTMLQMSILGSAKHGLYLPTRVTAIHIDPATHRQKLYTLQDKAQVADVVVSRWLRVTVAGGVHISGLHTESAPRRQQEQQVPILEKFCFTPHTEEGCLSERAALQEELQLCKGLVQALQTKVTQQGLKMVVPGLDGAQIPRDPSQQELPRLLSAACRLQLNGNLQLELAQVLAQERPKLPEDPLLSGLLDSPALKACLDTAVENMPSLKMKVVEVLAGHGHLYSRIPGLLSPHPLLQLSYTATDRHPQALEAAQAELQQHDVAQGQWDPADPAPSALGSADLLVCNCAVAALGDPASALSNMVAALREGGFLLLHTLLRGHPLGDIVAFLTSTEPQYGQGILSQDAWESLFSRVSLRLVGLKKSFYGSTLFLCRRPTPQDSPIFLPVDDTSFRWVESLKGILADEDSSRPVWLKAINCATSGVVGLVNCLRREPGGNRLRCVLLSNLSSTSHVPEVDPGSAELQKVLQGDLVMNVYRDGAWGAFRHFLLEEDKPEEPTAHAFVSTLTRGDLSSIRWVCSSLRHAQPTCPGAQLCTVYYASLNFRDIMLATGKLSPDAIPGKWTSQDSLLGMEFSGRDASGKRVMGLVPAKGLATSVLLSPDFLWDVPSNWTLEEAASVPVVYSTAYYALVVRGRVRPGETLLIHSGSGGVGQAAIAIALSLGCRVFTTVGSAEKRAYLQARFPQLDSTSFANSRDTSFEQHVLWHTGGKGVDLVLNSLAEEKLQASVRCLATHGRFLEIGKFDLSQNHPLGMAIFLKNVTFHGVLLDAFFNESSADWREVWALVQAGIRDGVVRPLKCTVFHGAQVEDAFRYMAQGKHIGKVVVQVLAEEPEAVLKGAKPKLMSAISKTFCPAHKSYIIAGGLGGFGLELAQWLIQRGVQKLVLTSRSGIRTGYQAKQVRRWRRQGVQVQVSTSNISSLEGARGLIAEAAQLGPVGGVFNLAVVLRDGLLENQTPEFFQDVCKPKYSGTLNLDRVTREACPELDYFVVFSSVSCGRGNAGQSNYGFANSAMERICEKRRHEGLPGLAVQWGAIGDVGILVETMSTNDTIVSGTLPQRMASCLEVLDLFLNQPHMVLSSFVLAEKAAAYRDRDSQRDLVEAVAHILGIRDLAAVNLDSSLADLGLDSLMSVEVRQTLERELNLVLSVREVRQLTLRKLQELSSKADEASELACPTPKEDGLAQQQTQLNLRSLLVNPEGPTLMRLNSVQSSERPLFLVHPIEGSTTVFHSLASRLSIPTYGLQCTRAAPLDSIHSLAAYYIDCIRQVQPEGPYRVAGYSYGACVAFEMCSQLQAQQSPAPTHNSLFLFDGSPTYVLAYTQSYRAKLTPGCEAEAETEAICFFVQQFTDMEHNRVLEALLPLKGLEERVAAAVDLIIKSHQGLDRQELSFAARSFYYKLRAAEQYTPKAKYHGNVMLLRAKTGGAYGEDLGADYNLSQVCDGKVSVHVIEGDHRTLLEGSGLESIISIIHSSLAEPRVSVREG

[13] = molecular target: T3, Fatty acid synthase; test: inhibition of human FAS-TE enzyme activity – biochemical, endpoint fluorescence intensity, uHTS hits, dose response (AID 624327); assay type: functional;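 note: fluorescence from hydrolysis of an O-methyl fluorescein acyl ester substrate by the enzyme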
[14] = HPDE-C7 pancreatic duct cell viability loss – fluorescence, HTS (AID 430); assay type: functional, cell-based; conditions: Homo sapiens
[15] = viability loss of HPDE-C7K cells – cell-based, fluorescence, HTS, primary screen (AID 431); assay type: functional; conditions: Homo sapiens
[16] = Trypanosoma cruzi growth suppression in host cells – NIH3T3 host cells, beta-gal luminescence, confirmation (AID 2044); assay type: functional, cell-based;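 note: intracellular parasites grown in NIH/3T3 mouse fibroblasts as host cells; luminescent beta-galactosidase reporter signal from transgenic T. cruzi replicating inside host cells; inhibitors lower the luminescence signal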
[17] = viability of uninfected HEp-2 cells – cell-based, HTS, cytotoxicity control for RSV inhibitor project, dose response (AID 2410); assay type: functional; conditions: human respiratory syncytial virus
[18] = NIH3T3 cell viability loss – ATP luminescence, mouse fibroblasts, counter-screen, dose response (AID 2010); assay type: functional, cell-based;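 note: cells exposed to compound for about 90 hours before reading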
[19] = molecular target: T4, Heat shock factor protein 1 (Mus musculus, UniProt P38532); test: enhancement of HSF1-driven luciferase signal – cell-based, NIH3T3, luminescence, dose retest, confirmation (AID 435004); assay type: functional;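 note: stress induced by proteasome inhibitor MG132 added 30 min after compound; luciferase reporter driven by HSF1 response element in NIH3T3 cells; actives raise luminescence as potentiators of the MG132 stress response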
T4 sequence (P38532 whole entry): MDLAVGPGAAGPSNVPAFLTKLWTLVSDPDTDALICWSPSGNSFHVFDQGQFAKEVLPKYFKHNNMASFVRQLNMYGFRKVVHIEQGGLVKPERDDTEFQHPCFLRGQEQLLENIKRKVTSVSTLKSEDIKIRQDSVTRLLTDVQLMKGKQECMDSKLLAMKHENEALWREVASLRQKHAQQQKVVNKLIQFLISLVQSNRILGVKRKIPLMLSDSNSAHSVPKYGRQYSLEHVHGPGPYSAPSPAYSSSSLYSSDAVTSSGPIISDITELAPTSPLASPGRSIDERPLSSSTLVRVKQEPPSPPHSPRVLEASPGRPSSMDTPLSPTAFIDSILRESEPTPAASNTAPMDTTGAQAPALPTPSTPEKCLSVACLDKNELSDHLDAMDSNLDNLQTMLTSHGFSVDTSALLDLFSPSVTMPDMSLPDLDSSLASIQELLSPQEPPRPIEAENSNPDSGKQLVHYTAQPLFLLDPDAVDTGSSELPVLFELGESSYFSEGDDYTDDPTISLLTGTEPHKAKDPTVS

[20] = luciferase reporter signal suppression in cells – H4 neuroglioma cells, luminescence, dose response (AID 1990); assay type: functional, cell-based
[21] = Luminescence Cell-Based Dose Confirmation HTS to Identify Inhibitors of Platelet Dense Granule Release. [Related pubchem assays: 1663 (Primary HTS), 1678 (Summary of Project)]; assay type: functional
[22] = molecular target: Luciferin 4-monooxygenase (Photinus pyralis, UniProt P08659); test: inhibition of purified Photinus pyralis luciferase – biochemical, luminescence, dose response (AID 1891)
Luciferin 4-monooxygenase, sequence (P08659 whole entry): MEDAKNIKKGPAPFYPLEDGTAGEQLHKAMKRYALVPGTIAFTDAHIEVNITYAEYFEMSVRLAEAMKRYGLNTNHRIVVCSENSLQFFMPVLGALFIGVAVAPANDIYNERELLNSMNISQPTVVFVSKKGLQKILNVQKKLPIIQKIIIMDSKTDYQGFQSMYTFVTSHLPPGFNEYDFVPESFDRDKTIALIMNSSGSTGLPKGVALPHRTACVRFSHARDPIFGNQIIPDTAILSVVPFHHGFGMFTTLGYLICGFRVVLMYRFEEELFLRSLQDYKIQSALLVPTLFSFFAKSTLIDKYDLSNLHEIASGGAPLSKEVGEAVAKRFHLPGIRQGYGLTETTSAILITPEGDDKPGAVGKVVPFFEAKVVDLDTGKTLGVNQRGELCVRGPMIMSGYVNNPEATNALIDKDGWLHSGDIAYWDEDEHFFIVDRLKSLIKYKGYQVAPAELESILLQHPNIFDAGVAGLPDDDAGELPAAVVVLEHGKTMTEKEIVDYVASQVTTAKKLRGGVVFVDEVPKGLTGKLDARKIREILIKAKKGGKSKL

[23] = Luminescence Cell-Based Dose Confirmation HTS to Identify Activators of 5'UTR Stem-Loop Driven Alpha-Synuclein mRNA Translation in H4 Neuroglioblastoma Cells. [Related pubchem assays: 1829 (Project Summary), 1814 (Primary HTS)]; assay type: functional
[24] = Luminescence Cell-Based Dose Response HTS to Identify Activators of Luciferase Translation or Activity in H4 […] Cells. [Related pubchem assays: 1829 (Project Summary), 1814 (Primary HTS)]; assay type: functional
[25] = tested on: H4; test: Luminescence Cell-Based Dose Response HTS to Identify Activators of 5'UTR Stem-Loop Driven Prion Protein mRNA Translation in H4 Neuroglioblastoma Cells. [Related pubchem assays: 1829 (Project Summary), 1814 (Primary HTS)]; assay type: functional; conditions: Homo sapiens
[26] = molecular target: T5, Histone-lysine N-methyltransferase NSD2 (Homo sapiens, UniProt O96028); assay type: biochemical
T5 sequence (O96028 whole entry): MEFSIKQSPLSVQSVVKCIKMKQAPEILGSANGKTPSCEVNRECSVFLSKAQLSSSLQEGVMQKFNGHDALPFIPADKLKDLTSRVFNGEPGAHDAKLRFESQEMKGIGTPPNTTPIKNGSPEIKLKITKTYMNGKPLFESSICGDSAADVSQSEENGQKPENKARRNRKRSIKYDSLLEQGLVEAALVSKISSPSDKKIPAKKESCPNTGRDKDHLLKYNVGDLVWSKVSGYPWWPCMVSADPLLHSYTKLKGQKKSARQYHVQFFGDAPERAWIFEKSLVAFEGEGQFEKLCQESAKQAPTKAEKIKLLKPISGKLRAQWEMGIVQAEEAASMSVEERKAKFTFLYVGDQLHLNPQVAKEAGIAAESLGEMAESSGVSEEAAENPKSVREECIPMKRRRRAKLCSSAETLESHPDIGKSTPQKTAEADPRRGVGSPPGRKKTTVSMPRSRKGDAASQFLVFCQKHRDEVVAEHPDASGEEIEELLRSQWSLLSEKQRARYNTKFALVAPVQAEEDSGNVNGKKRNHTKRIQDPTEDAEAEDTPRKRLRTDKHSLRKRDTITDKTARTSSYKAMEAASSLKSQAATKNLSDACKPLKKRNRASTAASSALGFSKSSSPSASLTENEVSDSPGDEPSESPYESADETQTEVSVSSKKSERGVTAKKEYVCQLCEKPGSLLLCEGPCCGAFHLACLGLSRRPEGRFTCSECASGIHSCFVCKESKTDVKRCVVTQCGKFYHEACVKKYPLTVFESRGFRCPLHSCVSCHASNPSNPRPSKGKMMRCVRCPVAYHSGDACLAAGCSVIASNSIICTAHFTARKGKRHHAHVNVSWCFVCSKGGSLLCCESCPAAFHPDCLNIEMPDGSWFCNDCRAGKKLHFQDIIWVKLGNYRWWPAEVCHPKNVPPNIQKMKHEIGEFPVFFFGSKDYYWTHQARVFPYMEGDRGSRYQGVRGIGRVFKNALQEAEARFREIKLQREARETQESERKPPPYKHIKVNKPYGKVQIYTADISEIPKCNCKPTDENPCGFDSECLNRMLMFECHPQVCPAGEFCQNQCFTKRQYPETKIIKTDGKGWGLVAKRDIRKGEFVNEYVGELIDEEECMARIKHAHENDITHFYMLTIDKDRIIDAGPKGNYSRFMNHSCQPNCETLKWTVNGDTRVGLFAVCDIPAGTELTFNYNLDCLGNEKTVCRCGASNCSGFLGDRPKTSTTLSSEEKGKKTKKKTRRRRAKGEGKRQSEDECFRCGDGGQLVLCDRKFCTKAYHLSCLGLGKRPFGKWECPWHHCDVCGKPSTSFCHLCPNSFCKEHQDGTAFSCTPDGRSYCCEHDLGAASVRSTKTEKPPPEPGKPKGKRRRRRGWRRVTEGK

T1 sequence (P11940 whole entry, the tested form may be a part): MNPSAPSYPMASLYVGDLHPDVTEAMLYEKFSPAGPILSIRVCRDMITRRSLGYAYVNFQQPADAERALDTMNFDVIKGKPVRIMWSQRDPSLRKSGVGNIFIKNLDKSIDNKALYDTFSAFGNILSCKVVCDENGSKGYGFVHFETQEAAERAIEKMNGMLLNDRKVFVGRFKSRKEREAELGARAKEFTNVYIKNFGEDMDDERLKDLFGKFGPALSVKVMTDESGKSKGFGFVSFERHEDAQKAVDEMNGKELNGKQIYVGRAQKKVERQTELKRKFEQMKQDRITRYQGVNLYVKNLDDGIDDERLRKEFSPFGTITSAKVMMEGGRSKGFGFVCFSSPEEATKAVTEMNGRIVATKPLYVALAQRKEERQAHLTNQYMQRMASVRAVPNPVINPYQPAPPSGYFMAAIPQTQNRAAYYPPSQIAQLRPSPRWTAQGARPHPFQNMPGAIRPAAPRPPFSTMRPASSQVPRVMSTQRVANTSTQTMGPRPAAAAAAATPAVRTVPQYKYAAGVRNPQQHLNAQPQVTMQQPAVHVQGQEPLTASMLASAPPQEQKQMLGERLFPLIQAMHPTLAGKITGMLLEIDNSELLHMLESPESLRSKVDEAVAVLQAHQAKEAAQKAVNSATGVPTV

COc1cccc(-n2c(=S)sc3c(=O)n(-c4ccccc4OC)c(=S)[nH]c32)c1
IC50 [1]: > 66 µM (inactive)
IC50 [2]: > 66 µM (inactive)

CCCN1C(=O)SC(CC(=O)Nc2ccc(C)cc2)C1=O (stereo not drawn)
IC50 [1]: > 66 µM (inactive)
IC50 [2]: > 66 µM (inactive)

CCOC(=O)c1cnc2ccc(Cl)cc2c1N1CCN(C)CC1
IC50 [3]: 25.9 µM (not active)

Cc1ccc(-n2[nH]c(=O)c(-c3ccccn3)c2C)cc1
EC50 [4]: 0.571 µM (active)
AC50 [5]: 1.61 µM (active)
AC50 [6]: > 52 µM (inactive)
AC50 [7]: 3.23 µM (active)
EC50 [8]: 2 µM (active)
AC50 [9]: 2.08 µM (active)

Cc1nc(NCc2ccco2)c(C#N)c2c1COC(C)(C)C2
IC50 [3]: 37.5 µM (not active)

CC1=C(C(=O)O)N2C(=O)C(NC(=O)c3ccc(F)cc3)C2SC1 (stereo not drawn)
IC50 [1]: > 66 µM (inactive)
IC50 [2]: > 66 µM (inactive)

O=C(Nc1nnc(C2CC2)s1)c1ccccn1
AC50 [10]: 19 µM (active)
AC50 [5]: 18.3 µM (active)
AC50 [6]: 7.92 µM (active)
AC50 [11]: 8.23 µM (active)
AC50 [9]: 17.1 µM (active)

CN(Cc1ccc(C(C)(C)C)cc1)C(=O)Cc1ccc(S(=O)(=O)N2CCOCC2)s1
IC50 [12]: 0.291 µM (active)
IC50 [13]: 0.424 µM (active)

CN1CCN(CC(=O)Nc2sc3c(c2C#N)CCC(C(C)(C)C)C3)CC1 (stereo not drawn)
EC50 [14]: > 20 µM (not active)
EC50 [15]: > 20 µM (not active)

CC(=O)c1ccc(OCCCC(=O)NC2=NCCS2)cc1
IC50 [1]: > 66 µM (inactive)
IC50 [2]: > 66 µM (inactive)

c1ccc(-c2nc(NCc3cccnc3)c3oc4ccccc4c3n2)cc1
EC50 [16]: 2.22 µM (active)
CC50 [17]: 28.9 µM (active)
EC50 [14]: 14.2 µM (active)
EC50 [18]: > 60 µM (not active)
EC50 [15]: 15.8 µM (active)
EC50 [19]: > 260 µM (inactive)

COc1ccc(N2CCN(C(=O)CSc3ccc([N+](=O)[O-])cc3)CC2)cc1
IC50 [12]: 12.9 µM (active)
IC50 [13]: 21.1 µM (inactive)

O=C(Nc1cccc(Cl)c1)c1cc([N+](=O)[O-])ccc1N1CCN(CCO)CC1
IC50 [12]: 2.72 µM (active)
IC50 [13]: 6.61 µM (active)

COc1ccc(C(=O)Nc2ccc3ccccc3c2)cc1
EC50 [20]: 9.12 µM (inconclusive)
EC50 [4]: 10.4 µM (inconclusive)
AC50 [5]: 5.78 µM (active)
AC50 [11]: 45.6 µM (active)
EC50 [8]: 6.82 µM (active)
AC50 [9]: 8.43 µM (active)

CC(=O)c1c2c3c(c(Br)ccc3n(C)c1=O)C(=O)c1ccccc1-2
IC50 [1]: 37.5 µM (inactive)
IC50 [2]: 45.8 µM (inactive)
EC50 [21]: > 112 µM (not active)
EC50 [22]: > 112 µM (not active)

CC(C)(CCC(=S)N1CCOCC1)C1CCCCC1
IC50 [1]: > 66 µM (inactive)
IC50 [2]: > 66 µM (inactive)

COc1ccc(/C=C(\NC(=O)c2ccc([N+](=O)[O-])cc2)C(=O)NCCCN2CCOCC2)cc1
IC50 [12]: 2.95 µM (active)
IC50 [13]: 4.51 µM (active)

N#CC1=C(N)NC(SCc2ccc(F)cc2)=C(C#N)C12CCCCC2
EC50 [14]: 10.4 µM (active)
EC50 [15]: 9.03 µM (active)
EC50 [23]: > 120 µM (not active)
EC50 [24]: > 120 µM (not active)
EC50 [25]: > 120 µM (not active)

CCNCCC(CCC(C)C)c1ccc2c(c1)OCO2 (stereo not drawn)
AC50 [26]: > 20 µM (inactive)

COc1cc(C(=O)COC(=O)c2cc([N+](=O)[O-])ccc2N2CCOCC2)ccc1OC(F)F
IC50 [12]: 10.1 µM (active)
IC50 [13]: 10.3 µM (active)

CCN(CC)CCCNc1cc(C)c(C#N)c2nc3ccccc3n12
AC50 [26]: > 20 µM (inactive)
